Test results taken from ChEMBL document CHEMBL1159187, “Novel polyamine derivatives as potent competitive inhibitors of Trypanosoma cruzi trypanothione reductase” (Bioorg Med Chem Lett, 1995).
Active and inactive are the calls of the source. The rule behind the calls is not given here.

Assays:
Trypanothione reductase = Trypanothione reductase (Trypanosoma cruzi, UniProt P28593); experiment: Compound was evaluated for the competitive inhibition of trypanothione reduction by recombinant Trypanothione reductase from Trypanosoma cruzi
[1] = biological target: Glutathione reductase (Saccharomyces cerevisiae) (UniProt P41921); experiment: Compound was evaluated for the competitive inhibition of glutathione reductase from yeast; No inhibition
Glutathione reductase (Saccharomyces cerevisiae), sequence (P41921 whole entry, looked up): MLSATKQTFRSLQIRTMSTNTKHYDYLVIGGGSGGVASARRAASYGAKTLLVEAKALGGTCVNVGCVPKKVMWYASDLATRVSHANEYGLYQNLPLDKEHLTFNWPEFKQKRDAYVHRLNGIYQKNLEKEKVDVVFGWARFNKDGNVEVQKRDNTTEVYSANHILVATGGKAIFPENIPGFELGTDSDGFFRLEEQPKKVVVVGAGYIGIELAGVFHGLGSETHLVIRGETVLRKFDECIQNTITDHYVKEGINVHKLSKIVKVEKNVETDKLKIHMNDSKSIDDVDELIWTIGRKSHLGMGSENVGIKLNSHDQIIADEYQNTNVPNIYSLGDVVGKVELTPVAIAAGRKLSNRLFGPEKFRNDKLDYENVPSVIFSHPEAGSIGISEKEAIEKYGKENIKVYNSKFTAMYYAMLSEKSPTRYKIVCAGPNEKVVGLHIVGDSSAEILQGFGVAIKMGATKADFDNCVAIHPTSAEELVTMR

Trypanothione reductase, sequence (P28593 whole entry): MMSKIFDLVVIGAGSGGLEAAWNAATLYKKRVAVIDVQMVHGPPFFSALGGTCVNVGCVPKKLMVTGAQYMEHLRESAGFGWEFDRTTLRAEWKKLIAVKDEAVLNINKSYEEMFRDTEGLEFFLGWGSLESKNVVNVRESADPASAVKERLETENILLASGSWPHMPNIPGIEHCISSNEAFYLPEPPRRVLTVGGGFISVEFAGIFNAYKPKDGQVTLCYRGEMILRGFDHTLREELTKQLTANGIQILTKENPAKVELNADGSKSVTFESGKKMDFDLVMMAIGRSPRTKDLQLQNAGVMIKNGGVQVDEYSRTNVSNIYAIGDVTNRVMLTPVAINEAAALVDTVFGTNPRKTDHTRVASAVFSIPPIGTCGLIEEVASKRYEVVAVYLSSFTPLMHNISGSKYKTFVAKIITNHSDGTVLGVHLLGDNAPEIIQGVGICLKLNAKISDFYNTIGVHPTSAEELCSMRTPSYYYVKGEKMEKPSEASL

Row | Structure (SMILES) | Ki (Trypanothione reductase) [µM] | Activity [1]
1 | NCCCN(CCCCN(CCCN)Cc1ccccc1)Cc1ccccc1 | 19 | 
2 | NCCCN(CCCCN(CCCN)CCCc1ccccc1)CCCc1ccccc1 | 3.5 | inactive
3 | c1ccc2cc(CNCCCCNCCCNCc3ccc4ccccc4c3)ccc2c1 | 9.5 | inactive
4 | NCCCN(CCCCN(CCCN)Cc1ccc2ccccc2c1)Cc1ccc2ccccc2c1 | 5.5 | inactive
5 | O=C(NCCCCNCCCNC(=O)c1ccccc1)c1ccccc1 | > 2000 | 
6 | NCCCCN(CCCN)Cc1ccc2ccccc2c1 | 108 | 
7 | NCCCCN(CCCN)C(=O)OCc1ccccc1 | 280 | 
